Like-named read-outs stand apart in the source and are kept apart here.

Assay [1] deals with Mouse TAAR 1. As to the kind of experiment: cAMP Biotrak EIA functional assay in HEK293 cells stably expressing the receptor.
Procedure: (§1) The amount of cAMP produced by HEK293 cells stably expressing the indicated receptor in response to stimulation by each of the listed compounds was measured using the cAMP Biotrak EIA System (Amersham). Shown are the EC50 values in µM (means of at least three independent experiments; EC50 values are calculated from experiments carried out with 12 concentrations each in duplicates evenly distributed in the range of 30 µM - 0.1 nM). The maximal response is represented as percentage of the maximal cAMP levels induced by p-TYR.
(§2) cAMP assay: cAMP was assayed using the cAMP Biotrak Enzymeimmunoassay (EIA) System from Amersham as described in the product manual, following the so-called Non-acetylation EIA procdure.
(§3) In the protocol the following minor modifications were introduced: After stimulation of HEK cells in 96 well plates the reaction was stopped by applying equal volume of pre cooled (-20°C) ethanol. Lysis of cells was not achieved by applying the lysis buffer supplied with the kit, but with transferring the 96 well plates to -80°C for a minimum of 6 hrs (up to several days). Thereafter the contents of the 96 well plates was dried at 50°C over night, and the material remaining in the 96 well plates was resuspended in 200 µl of the assay buffer (the buffer used for resuspending all reagents of the kit). The resuspension were assayed in serial dilutions in assay buffer.
The subject of assay [2] is Mouse TAAR 1.
Procedure: as §1, §2, §3

As a reminder, the EC50 is the concentration giving half of the maximal effect. The molecule `CNCCc1ccc(O)cc1` [N-methyl-p-tyramine] gave an EC50 with Mouse TAAR 1 [1] of 1.02 ± 0.39 µM. The Max in the assay on Mouse TAAR 1 [1] (hek293 cells) was 100%.
`CNCCc1ccccc1` [N-methyl-β-PEA] came in with a Max in the assay on Mouse TAAR 1 [1] (hek293 cells) of 100%.
On to `NCCc1c[nH]c2ccccc12` [TRY, tryptamine], for which, in the assay with Mouse TAAR 1 [1] (hek293 cells), the Max came to 100%.
`NCCc1ccc(O)cc1` [p-TYR, p-tyramine]: the Max with Mouse TAAR 1 [1] (maximal response as percentage of the maximal cAMP levels induced by p-TYR, HEK293 cells stably expressing mTAAR1) worked out at 100%. This molecule also displayed an EC50 with Mouse TAAR 1 [2] of 1.37 ± 0.33 µM.
With `NCCc1ccccc1` [β-PEA, β-phenylethylamine], the Max with Mouse TAAR 1 [1] (hek293 cells) stood at 100%.

(Values after EP1627887A2, “Mouce trace amine associated receptors” (F.HOFFMANN-LA ROCHE AG, priority 2004, dated 2006).)
